Assay results: publication PMC11078746 (Nature, 2024)

How the values were obtained:
[1] = In vitro unbound fraction; format: in vitro ADME
[2] = tested on: TK6; assay: in vitro TK6 MNT; format: cell-based
[3] = tested on: WRN protein in MSI and MSS cells; assay: WRN degradation (immunoblot, ELISA); format: cell-based, human
Description: A list of all of the antibodies is provided in Supplementary Table 2. […] The plates were washed in PBS and 200 µl per well of blocking reagent added (PBS, 0.05% Tween-20, 5% skimmed milk), and the plates were incubated for a minimum of 2 h at room temperature. […] The plates were then washed and 50 µl of secondary antibody per well diluted in blocking buffer was added and the plates were incubated overnight at 4 °C. The next day, 50 µl of tertiary antibody was added per well buffer and the plates were incubated for 2 h at room temperature. […] The plates were shaken and luminescence was detected immediately on the Synergy HT microplate reader.

[4] = tested on: JHUEM1; assay: CFA 10-14 day clonogenic assay; format: cell-based; conditions: Homo sapiens
[5] = tested on: HEC265; assay: CFA 10-14 day clonogenic assay; format: cell-based; conditions: Homo sapiens
[6] = tested on: HEC59; assay: CFA 10-14 day clonogenic assay; format: cell-based; conditions: Homo sapiens
[7] = tested on: JHUEM2; assay: CFA 10-14 day clonogenic assay; format: cell-based; conditions: Homo sapiens
[8] = tested on: SNU520; assay: CFA 10-14 day clonogenic assay; format: cell-based; conditions: Homo sapiens
[9] = tested on: SNUC4; assay: 4 day proliferation assay (CellTiter-Glo); conditions: Homo sapiens, SNU-C4, 96 h, read-out: 4 day assay GI50
[10] = tested on: CL34; assay: 4 day proliferation assay (CellTiter-Glo); conditions: Homo sapiens, 96 h, read-out: 4 day assay GI50
[11] = tested on: OVK18; assay: 4 day proliferation assay (CellTiter-Glo); conditions: Homo sapiens, OVK18, 96 h, read-out: 4 day assay GI50

For CCc1c(N2CCN(C(=O)c3ncnc(C)c3O)CC2)c(=O)n2nc(C3=CCOCC3)nc2n1CC(=O)Nc1ccc(C(F)(F)F)cc1Cl [HRO761], the fraction unbound [1] was 0.37, the “in vitro TK6 MNT” value [2] was “Negative” and the “WRN degradation, dependence on MSI/MSS status” value [3] was “only in MSI cells”. For the same molecule, the GI50 [4] was 35 nM, the GI50 [5] was 61 nM and the GI50 [6] was 133 nM. The GI50 [7] was 929 nM, the GI50 [8] was 1740 nM and the GI50 [9] was 145 nM. It also gave a GI50 [10] of 231 nM and a GI50 [11] of at least 10000 nM.
